Measurements as given in patent US4318916A, “Antibiotic PS-5 and derivatives having β-lactamase inhibitory activity and production thereof” (Sanraku-Ocean Co., Ltd., priority 1977, dated 1982).
Where two headings read alike, the source gives them in different places.

System: Proteus vulgaris P-5
Test: Potentiation disc assay with cephaloridine (Table 10)
Assay type: cell-based
Settings: for Potentiation of the antimicrobial activity of cephaloridine: disc assay, Table 10; for Inhibition zone With CER: 50 μg/ml cephaloridine in agar; for zone of inhibition at 625 µg/mL / zone of inhibition at 2500 µg/mL / zone of inhibition at 10000 µg/mL: P5, 18 h, read-out: Inhibition zone Without CER
Experimental: (A) Ten milliliters of molten nutrient agar containing 50 μg/ml of penicillin G or cephaloridine, 0.8% of Kyokuto Nutrient Broth Powder and 1.0% of Difco Bacto-Agar (pH 7.0) were seeded with the beta-lactam-resistant, beta-lactamase-producing microorganisms indicated in Tables 9 and 10, and poured in a 9-cm Petri dish to provide the bio-assay agar plate. On this assay plate, 8-mm pulp discs containing 25 μl each of antibiotic PS-5 solutions at the indicated concentrations were placed and incubated at 35° C. for 18 hours before reading the inhibition zones. The control assay plate was similarly prepared without penicillin G nor cephaloridine. As reference antibiotics, penicillin G, ampicillin, oxacillin and cefazolin were disc-assayed under the same conditions.

[1] = Proteus vulgaris P-5, reference antibiotic 625 μg/ml
[2] = Proteus vulgaris P-5, reference antibiotic 2,500 μg/ml
[3] = Proteus vulgaris P-5, reference antibiotic 10,000 μg/ml

Row | SMILES | Potentiation of the antimicrobial activity of cephaloridine (Proteus vulgaris P-5) | Inhibition zone With CER [1] [mm] | Inhibition zone With CER [2] [mm] | Inhibition zone With CER [3] [mm] | zone of inhibition at 625 µg/mL (Proteus vulgaris) [mm] | zone of inhibition at 2500 µg/mL (Proteus vulgaris) [mm] | zone of inhibition at 10000 µg/mL (Proteus vulgaris) [mm] | zone of inhibition at 625 µg/mL [1] [mm] | zone of inhibition at 2500 µg/mL [2] [mm] | zone of inhibition at 10000 µg/mL [3] [mm]
1 | Cc1onc(-c2ccccc2)c1C(=O)N[C@@H]1C(=O)N2[C@@H]1SC(C)(C)[C@@H]2C(=O)O [Oxacillin, oxacillin] | could not increase the antimicrobial activity of cephaloridine | 0 | 0 | 0 | 0 | 0 | 0 |  |  | 
2 | Cc1nnc(SCC2=C(C(=O)O)N3C(=O)[C@@H](NC(=O)Cn4cnnn4)[C@H]3SC2)s1 [Cefazolin, cefazolin] | could not increase the antimicrobial activity of cephaloridine | 0 | 0 | 12.0 |  |  |  | 0 | 0 | 14.6
3 | CC1(C)S[C@@H]2[C@H](NC(=O)Cc3ccccc3)C(=O)N2[C@H]1C(=O)O [Penicillin G, penicillin G] | could not increase the antimicrobial activity of cephaloridine | 0 | 0 | 14.5 | 0 | 0 | 14.9 |  |  | 
